# Source: US7893299B2, “Interleukin-1 and tumor necrosis factor-αmodulators; syntheses of such modulators and methods of using such modulators” (Nereus Pharmaceuticals, Inc., priority 2005, dated 2011)
# Read-outs that look alike come from different tables or passages of the source.
# Experiments:
# MM cells = assay: apoptosis of MM cells (DAPI, PARP cleavage, caspases); format: cell-based
# Procedure: Transcription factor NF-KB is linked to growth and survival of multiple myeloma (MM) cells and blockade of NF-KB activity. NPI-1387 (Formula IIB-b1; compound 24 shown above under scheme 4), a potent small-molecule inhibitor of upstream activator of NF-KB, was administered to MM cells and its effect on the viability of MM cells, including those resistant to conventional agents dexamethasone or doxorubicin is shown.
# Besides nuclear condensation, NF-KB inhibitor triggered proteolytic cleavage of poly (ADP ribose) polymerase (PARP), a hallmark of apoptosis.
# Both caspase-8 and caspase-9 activate downstream caspase-3. […] Collectively, these findings show the efficacy of NF-KB inhibitor to enhance MM cell killing, overcome drug-resistance, and improve patient outcome in MM.
# [1] = test system: bortezomib-resistant DHL-4 lymphoma cells; assay: viability of bortezomib-resistant DHL-4 lymphoma cells; format: cell-based; settings: 48 hours; 0, 12, 25 and 50 uM
# Procedure: Two cell-based assays were treated with NPI-1387 for 48 hours at concentrations of 0, 12, 25 and 50 uM. Both Bcl-2-overexpressing MM.1S cells and bortezomib-resistant DHL-4 lymphoma cells were used and the percentage of viable cells of each was recorded. […] (See FIG. 67).
# MDA-MB-231 (Breast) = assay: 48 hr cytotoxicity, MDA-MB-231; format: cell-based, human
# Procedure: B16-F10 (ATCC; CRL-6475), DU 145 (ATCC; HTB-81), HEK293 (ATCC; CRL-1573), HT-29 (ATCC; HTB-38), LoVo (ATCC; CCL-229), MDA-MB-231 (ATCC; HTB-26), MIA PaCa-2 (ATCC; CRL-1420), NCI-H292 (ATCC; CRL-1848), OVCAR-3 (ATCC, HTB-161), PANC-1 (ATCC; CRL-1469), PC-3 (ATCC; CRL-1435), RPMI 8226 (ATCC; CCL-155) and U266 (ATCC; TIB-196) are maintained in appropriate culture media. The cells are cultured in an incubator at 37° C. in 5% CO2 and 95% humidified air.
# For cell growth inhibition assays, B16-F10, DU 145, HEK293, HT-29, LoVo, MDA-MB-231, MIA PaCa-2, NCI-H292, OVCAR-3, PANC-1, PC-3, RPMI 8226 and U266 cells are seeded at 1.25×10^3, 5×10^3, 1.5×10^4, 5×10^3, 5×10^3, 1×10^4, 2×10^3, 4×10^3, 1×10^4, 7.5×10^3, 5×10^3, 2×10^4, 2.5×10^4 cells/well respectively in 90 μl complete media into Corning 3904 black-walled, clear-bottom tissue culture plates. 20 mM stock solutions of compounds of Formula II, IIA, and IIB are prepared in 100% DMSO, aliquoted and stored at −80° C. Compounds of Formula II, IIA, and IIB are serially diluted and added in triplicate to the test wells resulting in final concentrations ranging from of 20 μM to 0.2 pM. […]
# Following 48 hours of drug exposure, 10 μl of 0.2 mg/ml resazurin (obtained from Sigma-Aldrich Chemical Co.) in Mg^2+, Ca^2+ free phosphate buffered saline is added to each well and the plates are returned to the incubator for 3-6 hours. Since living cells metabolize Resazurin, the fluorescence of the reduction product of Resazurin is measured using a Fusion microplate fluorometer (Packard Bioscience) with λex=535 nm and λem=590 nm filters. […]
# The cytotoxicity assays were performed by seeding individual cell lines at appropriate density in the 96 well flat-bottomed plates and allowed to attach for 24 hours at 37° C., 5% CO2 and 95% humidified air (RPMI 8226 and U266 cells were plated in 96 well plates on the day of compound addition). […] Cell viability was assessed 48 hours later by measuring the fluorescence of the reduction product of Resazurin by a Fusion microplate fluorometer (PerkinElmer) with λex=535 nm and λem=590 nm filters. […]
structure (smiles),measurement,setting,value
"C=CC(=O)C1(C)CCCC2(C)C3=CCC(C)(C=C)C[C@@H]3CC[C@H]12 (stereo in doubt) [NPI-1387, 1-[(1S,4aS,7R)-1,4a,7-Trimethyl-7-vinyl-1,2,3,4,4a,6,7,8,8a,9,10,10a-dodecahydro-1-phenanthrenyl]-2-propen-1-one]","Apoptic signaling in MM cells, intrinsic and extrinsic pathways",MM cells,triggered by NPI-1387
same,caspase activation,MM cells; 25 μM,"induces activation of caspase-8, caspase-9, followed by caspase-3 cleavage"
same,"apoptosis (nuclear condensation, PARP cleavage)",MM cells; respective IC50 for 48 h,significant apoptosis
same,percentage of viable cells,[1],marked decrease in the percentage of viable cells
same,IC50,MDA-MB-231 (Breast),15 ± 4 µM
same,IC50,"MDA-MB-231 (Breast); Homo sapiens, MDA-MB-231, 48 h",18 ± 2 µM
